Test results taken from patent publication US9133181B2, “Substituted 6-(4-hydroxy-phenyl)-1H-pyrazolo[3,4-b]pyridine derivatives as kinase inhibitors” (SANOFI, priority 2012, dated 2015).

What follows are compounds tested against T1, human full-length recombinant PKC βII (Homo sapiens, UniProt P05771) (assay: Determination of PKC βII inhibition (Caliper mobility shift kinase assay)). Conditions: final compound concentration 1.14 μM (±0.15 μM); 60 min incubation at 32° C.
T1 construct: Active human full-length recombinant PKC βII; purchased Invitrogen GmbH, Darmstadt, Germany
T1 sequence (P05771 1-673 isoform P05771-2): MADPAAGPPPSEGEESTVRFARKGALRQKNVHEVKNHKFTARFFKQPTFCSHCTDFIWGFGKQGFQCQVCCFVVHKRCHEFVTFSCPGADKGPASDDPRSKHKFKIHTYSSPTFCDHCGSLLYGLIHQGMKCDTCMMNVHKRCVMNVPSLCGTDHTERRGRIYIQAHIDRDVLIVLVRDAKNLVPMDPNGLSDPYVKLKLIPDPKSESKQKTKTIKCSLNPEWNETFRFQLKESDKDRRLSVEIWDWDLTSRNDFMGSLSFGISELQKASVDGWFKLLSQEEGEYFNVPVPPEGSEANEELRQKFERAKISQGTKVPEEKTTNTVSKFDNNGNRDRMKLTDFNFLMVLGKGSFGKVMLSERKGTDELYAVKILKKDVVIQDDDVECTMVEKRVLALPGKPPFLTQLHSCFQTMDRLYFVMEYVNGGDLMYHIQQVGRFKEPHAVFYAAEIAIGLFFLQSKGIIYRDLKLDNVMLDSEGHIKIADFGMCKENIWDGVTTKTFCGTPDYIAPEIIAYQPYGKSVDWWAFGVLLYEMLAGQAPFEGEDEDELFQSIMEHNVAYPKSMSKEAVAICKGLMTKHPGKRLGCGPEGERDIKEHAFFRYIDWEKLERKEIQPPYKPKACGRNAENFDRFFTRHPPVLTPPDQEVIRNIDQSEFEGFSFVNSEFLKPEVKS
Assay type: biochemical
Procedure, shortened: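 Compound was tested at a final 1.14 µM (±0.15 µM), with % inhibition derived from the product/(substrate+product) peak ratio on a Caliper mobility-shift read-out. Full-length PKC βII was activated by CaCl2, PS and DAG in pH 7.4 Hepes/MgCl2. Peptide and ATP were at 3 µM and 120 µM in the added mix. Incubation was 60 min at 32 °C.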
In the case of `Cc1n[nH]c2nc(-c3ccc(O)cc3)cc(CN3CC(C)(C)N(CCC(F)(F)F)CC3(C)C)c12` [Example 83, 4-{3-Methyl-4-[2,2,5,5-tetramethyl-4-(3,3,3-trifluoro-propyl)-piperazin-1-ylmethyl]-1H-pyrazolo[3,4-b]pyridin-6-yl}-phenol], the inhibition at 1.14 µM is reported as 69%.
`Cc1n[nH]c2nc(-c3ccc(O)cc3)cc(CN3CC(C)(C)N(C)CC3(C)C)c12` [Example 84, 4-[3-Methyl-4-(2,2,4,5,5-pentamethyl-piperazin-1-ylmethyl)-1H-pyrazolo[3,4-b]pyridin-6-yl]-phenol] showed an inhibition at 1.14 µM of 98%.
Compound `CNCCN1CC(C)(C)N(Cc2cc(-c3ccc(O)cc3)nc3[nH]nc(C)c23)CC1(C)C` [Example 85, 4-{3-Methyl-4-[2,2,5,5-tetramethyl-4-(2-methylamino-ethyl)-piperazin-1-ylmethyl]-1H-pyrazolo[3,4-b]pyridin-6-yl}-phenol] has an inhibition at 1.14 µM of 101%.
With `COC(=O)CN1CC(C)(C)N(Cc2cc(-c3ccc(O)cc3)nc3[nH]nc(C)c23)CC1(C)C` [Example 86, {4-[6-(4-Hydroxy-phenyl)-3-methyl-1H-pyrazolo[3,4-b]pyridin-4-ylmethyl]-2,2,5,5-tetramethyl-piperazin-1-yl}-acetic acid methyl ester] the inhibition at 1.14 µM was 86%.
`COC(=O)CNC(=O)N1CC(C)(C)N(Cc2cc(-c3ccc(O)cc3)nc3[nH]nc(C)c23)CC1(C)C` [Example 87, ({4-[6-(4-Hyd roxy-phenyl)-3-methyl-1H-pyrazolo[3,4-b]pyridin-4-ylmethyl]-2,2,5,5-tetramethyl-piperazine-1-carbonyl}-amino)-acetic acid methyl ester] was tested, and the inhibition at 1.14 µM was 92%.
`CCNC(=O)N1CC(C)(C)N(Cc2cc(-c3ccc(O)cc3)nc3[nH]nc(C)c23)CC1(C)C` [Example 88, 4-[6-(4-Hydroxy-phenyl)-3-methyl-1H-pyrazolo[3,4-b]pyridin-4-ylmethyl]-2,2,5,5-tetramethyl-piperazine-1-carboxylic acid ethylamide] gave an inhibition at 1.14 µM of 89%.
In the case of `CCNC(=O)N1CCCN(Cc2cc(-c3ccc(O)cc3F)nc3[nH]nc(C)c23)CC1C` (stereo not shown) [Example 89, 4-[6-(2-Fluoro-4-hydroxy-phenyl)-3-methyl-1H-pyrazolo[3,4-b]pyridin-4-ylmethyl]-2-methyl-[1,4]diazepane-1-carboxylic acid ethylamide], the inhibition at 1.14 µM is reported as 76%.
With `COCC(=O)N1CC(C)(C)N(Cc2cc(-c3ccc(O)cc3)nc3[nH]nc(C)c23)CC1(C)C` [Example 90, 1-{4-[6-(4-Hydroxy-phenyl)-3-methyl-1H-pyrazolo[3,4-b]pyridin-4-ylmethyl]-2,2,5,5-tetramethyl-piperazin-1-yl}-2-methoxy-ethanone] the inhibition at 1.14 µM was 99%.
With `Cc1n[nH]c2nc(-c3ccc(O)cc3)cc(CN3CCN[C@H](CC(F)(F)F)C3)c12` [Example 91, 4-{3-Methyl-4-[(R)-3-(2,2,2-trifluoro-ethyl)-piperazin-1-ylmethyl]-1H-pyrazolo[3,4-b]pyridin-6-yl}-phenol] the inhibition at 1.14 µM was 81%.
`Cc1n[nH]c2nc(-c3ccc(O)cc3)cc(CN3CCNC[C@H]3CC(F)(F)F)c12` [Example 92, 4-{3-Methyl-4-[(R)-2-(2,2,2-trifluoro-ethyl)-piperazin-1-ylmethyl]-1H-pyrazolo[3,4-b]pyridin-6-yl}-phenol] was tested, and the inhibition at 1.14 µM was 99%.
For `CNC1CCN(Cc2cc(-c3ccc(O)cc3)nc3[nH]nc(C)c23)C1` (stereo not shown) [Example 93, 4-[3-Methyl-4-(3-methylamino-pyrrolidin-1-ylmethyl)-1H-pyrazolo[3,4-b]pyridin-6-yl]-phenol], the inhibition at 1.14 µM was 81%.
Work on `Cc1n[nH]c2nc(-c3ccc(O)cc3)cc(CN(C)C3CCNC3)c12` (stereo not shown) [Example 94, 4-{3-Methyl-4-[(methyl-pyrrolidin-3-yl-amino)-methyl]-1H-pyrazolo[3,4-b]pyridin-6-yl}-phenol] yielded an inhibition at 1.14 µM of 92%.
Work on `Oc1ccc(-c2cc(CN3CCNCC3)c3c(C4CC4)n[nH]c3n2)cc1` [Example 95, 4-(3-Cyclopropyl-4-piperazin-1-ylmethyl-1H-pyrazolo[3,4-b]pyridin-6-yl)-phenol] yielded an inhibition at 1.14 µM of 53%.
